Assay results from patent US20210340526A1, “NOVEL METHOD FOR TRANSDUCING PROTEIN-PROTEIN INTERACTIONS” (ETH ZÜRICH, priority 2018, published 2021).

What was measured:
CMV promoter = test: iRFP expression from constitutive promoter under stimulation, HEK cells; format: cell-based; conditions: 1 μM of procaterol or 2 μM of epinephrine versus DMEM without ligand
Description: (§1) (a) iRFP fluorescence of HEK cells transfected with the plasmid expressing iRFP from the CMV promoter (white bar) or from the EF1α promoter (black bars). The reporter expression in DMEM without any ligand or in the presence of 1 μM of procaterol or 2 μM of epinephrine is shown as indicated. The bar charts display iRFP level normalized to the frequency of the transfection marker Citrine-positive cells (rel. u.) as mean±SD of independent biological triplicates. (b) Activity of the NarX/NarL expressed from CMV or EF1a promoters. Every transfection contains NarL-regulated mCerulean fluorescent protein reporter and plasmids expressing NarL and NarX from CMV, EF1α or EF1α-V1 promoters, as indicated in the chart.
(§2) For any synthetic signalling system, it is important to avoid non-specific changes to the signalling readout. In the system of the invention, the components are expressed from constitutive promoters. However, these promoters are in fact controlled by highly-expressed transcription factors such as Sp1, and there is always a risk that these factors are directly affected by external stimuli via unrelated endogenous pathways. This would result in the change of constitutive expression, and apparent change in the signalling readout that is unrelated to the studied effect and is artefactual. To eliminate these confounding factors, the inventors examined a number of constitutive promoters for their robustness under various stimulation conditions and compared the expression of iRFP from the CMV and EF1α promoters in the presence of different compounds often used to induce cell signalling (Epinephrine and procaterol).

EF1α promoter = test: as above; format: cell-based; conditions: 1 μM of procaterol or 2 μM of epinephrine versus DMEM without ligand
Description: as §1, §2

GPCR ADRB2-AVPR2 = target: T1, GPCR ADRB2-AVPR2 (Homo sapiens, UniProt P07550, E27Q/G16R); test: two-component (NarX/NarL) reporter assay of GPCR/beta-arrestin interaction, pair ADRB2-AVPR2::H^mut and beta-arrestin::N^mut, in HEK293 cells; format: cell-based
T1 construct: expressed in transfected cells; host or cells: HEK293

NarX/NarL system = test: control: effect of ligand on NarX/NarL signalling in HEK cells; format: cell-based; conditions: 100 nM; HEK cells with NarX or NarX^379to598, NarL and NarL-activated reporter
Description: To find out if NarX domains are capable of transducing this interaction (FIG. 3a), the complementing histidine and asparagine NarX mutants described above were fused at their N-terminus to the FKBP (FK) and the FRB^T2098L (FR) proteins, respectively, resulting in the fusions FK::NarX^379to598H399Q (FK::H^mut) and FR::NarX^379to598N509A (FR::N^mut), and the inverse pair FR::H^mut and FK::N^mut. […]
The cells were prepared for FACS analysis 48 h after transfection by removing the medium and incubating the cells with 200 μl StemPro™ Accutase™ Cell Dissociation Reagent (Gibco, cat #A11105-01) at 37° C. for 5 minutes. […] The prepared samples were measured using a BD LSR Fortessa II Cell Analyzer with a combination of excitation and emission that minimizes the crosstalk between different fluorescent reporters. Cerulean was measured with a 445 nm laser and a 473/10 nm emission filter, mCherry with a 561 nm excitation laser coupled to a 600 nm longpass filter and 610/20 emission filter. The Cerulean and the mCherry were measured, respectively, at PMT voltage of 330 and 310 in all the experiments. […]

[1] = target: ADRB2^1to341::AVPR2^343to371::NarX^379to598 H399Q (UniProt P07550); test: cell-based or functional assay
FKBP and FRB^T2098L = FKBP and FRB^T2098L (Homo sapiens, UniProt P42345+P62942, T2098L); test: two-component (NarX/NarL) reporter assay of ligand-induced FKBP/FRB heterodimerization in HEK293 cells; format: cell-based; conditions: pair FR::H^mut and FK::N^mut, NarL and NarL-activated mCerulean reporter, HEK293, Hill function fit of dose-response; read-out: EC50 in the context of the assay
Description: To enable bona fide signalling, the dimerization of the NarX domains should be preferably controlled by an external stimulus. Inducible protein-protein interaction is a common signalling mechanism both in the cytoplasm and across the membrane. A well characterized ligand-induced heterodimerization takes place between the proteins FK506-binding protein 12 (FKBP) and FKBP12-rapamycin binding domain (FRB) mutant FRB^T2098L in the presence of the small molecule A/C heterodimerize (a rapamycin analog Cl 6-(S)-7-methylindolerapamycin, known also as AP21967).
To find out if NarX domains are capable of transducing this interaction (FIG. 3a), the complementing histidine and asparagine NarX mutants described above were fused at their N-terminus to the FKBP (FK) and the FRB^T2098L (FR) proteins, respectively, resulting in the fusions FK::NarX^379to598H399Q (FK::H^mut) and FR::NarX^379to598N509A (FR::N^mut), and the inverse pair FR::H^mut and FK::N^mut. […] Next, the inventors probed the ligand-induced signalling in a fashion similar to the one used for SynZip1-SynZip2 experiments, expressing different fusion variants and control constructs in HEK293 cells, in the presence of the response regulator NarL and NarL-activated reporter construct, this time with and without the ligand (FIG. 3b, FIG. 8). As expected, full length wild type NarX was constitutively active. […]

Chain of FKBP and FRB^T2098L (P62942 whole entry, the tested form may be a part): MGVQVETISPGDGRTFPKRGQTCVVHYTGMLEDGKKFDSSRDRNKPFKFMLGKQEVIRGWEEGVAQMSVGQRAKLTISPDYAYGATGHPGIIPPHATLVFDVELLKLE
Chain of FKBP and FRB^T2098L (P42345 2012-2144 T2098L limits assumed): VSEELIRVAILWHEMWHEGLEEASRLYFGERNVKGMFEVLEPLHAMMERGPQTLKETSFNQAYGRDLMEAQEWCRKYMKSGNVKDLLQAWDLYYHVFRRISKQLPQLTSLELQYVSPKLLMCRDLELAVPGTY

## CNC[C@H](O)c1ccc(O)c(O)c1 [epinephrine]
CMV promoter
  activity of the CMV promoter (iRFP expression): induced by a factor of two
EF1α promoter
  activity of the EF1α promoter (iRFP expression): not affected

## CCC(NC(C)C)C(O)c1ccc(O)c2[nH]c(=O)ccc12 (stereo not drawn) [procaterol]
GPCR ADRB2-AVPR2; ADRB2-AVPR2::H^mut and beta-arrestin::N^mut, NarL-regulated mCerulean reporter, HEK293, read-out: EC50 from the dose-response curves
  EC50: 5 nM
GPCR ADRB2-AVPR2; complementary NarX mutants fused to the GPCR receptor and beta-arrestin, with versus without procaterol
  induction dynamic range of procaterol-triggered signalling: above 3 orders of magnitude
GPCR ADRB2-AVPR2; saturating doses, full agonists
  maximum response of downstream gene expression: reach the same maximum response
NarX/NarL system
  effect on signalling via the wild-type NarX/NarL system: did not affect
CMV promoter
  activity of the CMV promoter (iRFP expression): induced by a factor of two
EF1α promoter
  activity of the EF1α promoter (iRFP expression): not affected

## ARRB2::NarX^379to598 N509A (from UniProt P32121 1-409)
[1]
  EC50 of the small-molecule agonist isoproterenol for reporter induction: 30 nM
  EC50 of the small-molecule agonist procaterol for reporter induction: 5 nM
  EC50 of the small-molecule partial agonist clenbuterol for reporter induction: 14 nM
  IC50 of the small-molecule antagonist propranolol in the presence of procaterol (reporter): 2 nM
  reporter expression with the partial agonist clenbuterol against the full agonists: 3.5 times lower

## Cl 6-(S)-7-methylindolerapamycin [A/C]
NarX/NarL system
  effect on signalling via the wild-type NarX/NarL system: did not affect
FKBP and FRB^T2098L
  EC50: 1.3 nM
